Laboratory results: patent publication US10617735B2, “Methods and compositions for preserving retinal ganglion cells” (Massachusetts Eye and Ear Infirmary, priority 2010, dated 2020)

How the values were obtained:
Assay type in all cases: in vivo, mouse
[1] = test system: retinal ganglion cells (RGCs); experiment: IPL thickness and GCL with IPL thickness after ON injury (immunohistochemistry, SD-OCT); conditions: seven days after ON injury; intravitreal 3-MA (33.3 mM); effect less than ZVAD plus Nec-1
Method: An anti-TNF-α neutralizing antibody (0.1 mg/ml) or a control antibody was injected into the vitreous of mice that underwent ON injury. One week following injection, the number of RGCs were measured. In addition, inner plexiform layer (IPL) thickness (a location of RGC axons) was also assessed. Specifically, eyes were enucleated and RGC loss was quantified from histological sections of mouse retina. Only transverse sections involving the optic disc were used for analysis and the fields corresponding to approximately 400 μm of both sides of retina extending from the ON head (2 points/section×3 sections per eye, n=6) were examined with an optical microscope (×40 objectives). IPL thickness was measured with OpenLab software (Open Lab, Florence, Italy) (2 points/section×3 sections per eye, n=6). The ratio of IPL thickness was calculated as a percentage of IPL thickness in the normal mouse eyes (n=6).
Inner plexiform layer (IPL) thickness and ganglion cell layer (GCL) with IPL thickness (location of RGC cell bodies and axons) were measured using immunohistochemistry and a Spectral Domain Optical Coherence Tomography (SD-OCT) system (Bioptigen Inc., Durham, N.C.). […] The thickness of GCL+IPL was assessed at 500 μm, 400 μm, 300 μm distance from the ON head (nasally and temporally) as well as at 200 μm, 400 μm above and below the ON head.

[2] = test system: retinal ganglion cells (RGCs); experiment: Brn3b immunohistochemistry (viable RGCs) after ON injury; conditions: seven days after ON injury; intravitreal 3-MA (33.3 mM); effect less than ZVAD plus Nec-1
Description: Two mouse models of RGC death were utilized: optic nerve (ON) injury and N-methyl-D-aspartate (NMDA) retinal excitotoxicity. ON injury leads to RGC death as a result of primary damage to the axons, with its ensuing disruption of retrograde axonal transport (Libby et al., (2005) PLOS GENET 1:17-26) and is used as an RGC death model. In the ON injury model, mice were anesthetized and subjected to severe crush injury at 1-2 mm distance from the eyeball for 15 seconds using cross-action forceps taking special care not to interfere with the blood supply (Levkovitch-Verbin, (2004) EYE 18:1066-1074). Injured mice were randomly divided into 4 groups for treatment: vehicle group (0.5% DMSO and 0.8% cyclodextrin in PBS, n=6), ZVAD group (300 n=6), Nec-1 group (4 mM, n=6), and ZVAD plus Nec-1 group (n=6). Soon after injury, each group received an intravitreal injection (2 μl) with the respective compounds. In the NMDA retinal excitotoxicity model, NMDA (2 μl of a 0.1M stock; Sigma-Aldrich) was injected intravitreously in combination with ZVAD, Nec-1, or ZVAD plus Nec-1 and mice were separated into the aforementioned 4 groups. […]

[3] = test system: retinal ganglion cells (RGCs); experiment: TUNEL staining after ON injury; conditions: one day after ON injury; intravitreal 3-MA (33.3 mM); compared to non-treated mice
Description: Two mouse models of RGC death were utilized: optic nerve (ON) injury and N-methyl-D-aspartate (NMDA) retinal excitotoxicity. ON injury leads to RGC death as a result of primary damage to the axons, with its ensuing disruption of retrograde axonal transport (Libby et al., (2005) PLOS GENET 1:17-26) and is used as an RGC death model. In the ON injury model, mice were anesthetized and subjected to severe crush injury at 1-2 mm distance from the eyeball for 15 seconds using cross-action forceps taking special care not to interfere with the blood supply (Levkovitch-Verbin, (2004) EYE 18:1066-1074). […] Soon after injury, each group received an intravitreal injection (2 μl) with the respective compounds. In the NMDA retinal excitotoxicity model, NMDA (2 μl of a 0.1M stock; Sigma-Aldrich) was injected intravitreously in combination with ZVAD, Nec-1, or ZVAD plus Nec-1 and mice were separated into the aforementioned 4 groups. The dose of these compounds was selected based on previous studies (Karl et al., (2008) PROC NATL ACAD SCI USA 105:19508-19513; Knoferle et al., (2010) PROC NATL ACAD SCI USA 107:6064-6069; Nakazawa et al., (2006) J NEUROSCI 26:12633-12641; Rosenbaum et al., (2010) J NEUROSCI RES 88:1569-1576).
Intravitreal injections were performed as follows. Briefly, the tip of a 33 gauge needle (Hamilton, Reno, Nev.) was carefully inserted through the sclera into the intravitreal space to reduce intraocular pressure. Then, the needle was extracted, loaded with compounds and tangentially reinserted through the sclera into the intravitreal space, inducing a self-sealing wound tunnel. After injection, the absence of choroidal bleeding was confirmed. At specified times after injury, mice were sacrificed with an overdose of sodium pentobarbital, and eyes were enucleated.

ROS = experiment: Protein carbonyl contents in retina after ON injury (ELISA); conditions: one day after ON injury; intravitreal 3-MA; compared with untreated control
Method: It has been reported that RIP kinases control ROS generation during programmed necrosis (Cho et. al., (2009) CELL 137:1112-1123, Zhang et al., (2009) SCIENCE 325:332-336)). To investigate whether ROS play a roll in oxidative retinal damage after ON injury, protein level of carbonyl contents was analyzed using ELISA using the OxiSelect™ Protein Carbonyl ELISA Kit (Cell Biolabs, San Diego, Calif.).
To investigate the role of autophagy in RGC death after ON injury, we examined the effect of 3-methyladenine (3-MA) on RGCs death after ON injury. 3-MA inhibits autophagosome formation (Seglen and Gordon, (1982) PROC NATL ACAD SCI USA 79:1889-1892)). One day after ON injury, TUNEL assay was performed. […] In addition, the number of Brn3b positive cells and IPL thickness were also analyzed. […] To investigate whether ROS play a role in oxidative retinal damage after ON injury, protein level of carbonyl contents was analyzed using an ELISA kit (Cell Biolabs, San Diego, Calif.) according to the manufacturer's instructions. One day after ON injury, carbonyl contents decreased in the 3-MA treated group compared with untreated control (FIG. 10F).

With `Cn1cnc(N)c2ncnc1-2` [3-MA, 3-methyladenine] the “reduction of IPL thickness ratio” value [1] was “significantly prevented the reduction”, the “reduction of Brn3b positive cells” value [2] was “significantly prevented the reduction” and the “number of TUNEL positive cells” value [3] was “small but statistically significant decline”. The “carbonyl contents (protein level, ELISA)” value (ROS) was “decreased”.
